Measured values as given in US10034462B2, “Animal model of nash-induced hepatocellular carcinoma and methods for developing specific therapeutics” (THE REGENTS OF THE UNIVERSITY OF CALIFORNIA, priority 2015, dated 2018).

Tests used:
[1] = system: primary hepatocytes from WT and MUP-uPA mice; assay: PA-induced lipotoxic cell death in primary hepatocytes (Cell Counting Kit-8 cell viability); assay type: cell-based; conditions: for PA-induced cell death (cell viability): 300 μM PA for 24 hr with 500 μM TUDCA or 1 mM 4-PBA, WT and MUP-uPA hepatocytes
Experimental: (§1) Cell viability was assessed using Cell Counting Kit-8 assay. Data are means±S.D. of triplicate wells. *p<0.05. […] CHOP expression, SREBP1 maturation, and JNK phosphorylation were assessed by IB. FIGS. 4C-4D show the effect of GRP78 overexpression. MUP-uPA hepatocytes were infected with adenoviruses encoding LacZ or GRP78 and then incubated with PA. SREBP1 maturation (FIG. 4C) and cell viability (FIG. 4D) were assessed as above. […] Data are means±S.D. of triplicate wells. *p<0.05. FIGS. 4F-4I show the effect of TUDCA on NASH in HFD-fed MUP-uPA mice. 16 week old HFD-fed MUP-uPA mice were i.p. injected with TUDCA (250 mg/kg) or vehicle, and after 4 weeks of daily treatment, liver histology (scale bar=100 μm) (FIG. 4F), serum ALT (FIG. 4G), liver TG (FIG. 4H) and liver cholesterol (FIG. 4I) were evaluated. Bar graphs are means±S.D. (n=5 per group). *p<0.05. See also FIGS. 11A-11M.
To examine whether ER stress enhances lipotoxicity in MUP-uPA hepatocytes, we incubated WT and MUP-uPA hepatocytes with PA.

[2] = system: primary hepatocytes from WT and MUP-uPA mice; assay: Immunoblot of CHOP expression, SREBP1 maturation and JNK phosphorylation in PA-treated primary hepatocytes; assay type: cell-based, mouse
Experimental: as §1, with “FIGS. 4A-4I are pictorial and graphical diagrams showing that chemical chaperons attenuate lipotoxicity and liver damage in MUP-uPA mice. […] Cell viability” for “Cell viability”
Primary hepatocytes were isolated (He et al., 2013) and cultured in William's E medium with 10% FBS on collagen-coated plates. PA (Sigma) was dissolved in ethanol at 50° C. and then diluted in bovine serum albumin-containing RPMI-1640 medium that was applied to primary hepatocytes at a final concentration of 200 (to analyze signal transduction) or 300 (to analyze cell death) μM.
Immunoblotting and real-time Q-PCR were described (Maeda et al., 2005). Antibodies used were against: phospho-ERK, ERK1/2, phospho STAT3, STAT3, phospho-JNK, JNK1/2, phospho-S6, S6, p65, cyclinD1, YAP (all from Cell Signaling); K19, GRP78, SREBP1, CHOP, CCL7, TNFR1 (all from Santa Cruz Biotechnology); phospho-eIF2α (Upstate); tubulin (Sigma); F4/80 (Molecular Probes); Ki67 (Gene Tex); AFP (Biocare Medical); TNF (R&D Systems); B220 (BD Pharmingen). TUDCA and 4-PBA were from Calbiochem and Sigma, respectively. GSH:GSSG ratio was analyzed using GSSG/GSH Quantification Kit (Dojindo).
To examine whether ER stress enhances lipotoxicity in MUP-uPA hepatocytes, we incubated WT and MUP-uPA hepatocytes with PA. […] PA increased CHOP expression and SREBP1 maturation in WT hepatocytes, but these effects were more pronounced in MUP-uPA hepatocytes, which expressed both proteins prior to PA addition (FIG. 4B). To examine the contribution of ER stress to these phenomena, we treated hepatocytes with the chemical chaperons 4-phenylbutyrate (4-PBA) and tauro-ursodeoxycholic acid (TUDCA), which reduce ER stress (Ozcan et al., 2006).

LFD or HFD-fed WT mice = assay: Tunicamycin-induced ER stress and liver damage in LFD- or HFD-fed WT mice; assay type: in vivo, mouse
Source text: FIGS. 10A-10J are pictorial and graphical diagrams showing that ER stress is sustained by HFD in MUP-uPA mice. […] Arrows indicate dilated ER (scale bar=1 μm). […] Representative images of livers and H&E (FIG. 10D) and TUNEL (FIG. 10E) staining of liver sections prepared 36 hrs later (scale bar=100 μm). […] Data are means±S.D. (n=3-4 per group). […] All bar graphs represent means±S.D. n=3 per group). *p<0.05.
Although the mechanism responsible for hepatocyte death in young MUP-uPA mice is not entirely clear, their hepatocytes are ER stressed (Sandgren et al., 1991). Indeed, several ER stress markers, including CHOP, GRP78, spliced XBP1 (sXBP1), phosphorylated (p) eIF2α, p-IRE1α and p-JNK, were elevated in 5 weeks old MUP-uPA mice compared with WT (FIGS. 3A and 10A). While most markers declined in 16 week old MUP-uPA mice, paralleling the decline in uPA expression, HFD-fed MUP-uPA mice maintained strong eIF2α and JNK phosphorylation and CHOP expression, (FIGS. 3B and 10A). In WT mice, HFD feeding induced only a slight elevation in p-eIF2α and CHOP mRNA with no effect on CHOP protein (FIG. 3B). Immunohistochemistry (IHC) confirmed nuclear CHOP in hepatocytes of 5 weeks old MUP-uPA mice, which was sustained at 16 weeks of age only in HFD-fed MUP-uPA mice (FIG. 3C). […] After 24 weeks of HFD, expression of the […] ligand TRAIL was also elevated in the MUP-uPA liver. […] Thus, whereas ER stress appears to be induced by uPA expression in 5 weeks old MUP-uPA mice, it declines due to transgene extinction. However, feeding these mice with HFD re-kindles the stress response and induces several cell death mediators that are not expressed in HFD-fed WT mice. To determine whether ER stress can cause ballooning degeneration and hepatocyte death, we injected HFD-fed WT mice with the protein glycosylation inhibitor and ER stress elicitor tunicamycin. This treatment led to rapid (36 hrs) induction of ballooning degeneration, hepatocyte apoptosis and ALT release only in HFD-fed mice (FIGS. 10D-10F).

HFD-fed MUP-uPA mice = assay: Effect of TUDCA on NASH in HFD-fed MUP-uPA mice; assay type: in vivo, mouse
Experimental: as §1, with “FIGS. 4A-4I are pictorial and graphical diagrams showing that chemical chaperons attenuate lipotoxicity and liver damage in MUP-uPA mice. […] Cell viability” for “Cell viability”
FIGS. 11A-11M are pictorial and graphical diagrams showing the effects of TUDCA and GRP78 overexpression and CHOP ablation on NASH and HCC development. FIGS. 11A and 11B show cell death and ROS accumulation in livers of TUDCA- or vehicle-treated HFD-fed MUP-uPA mice were examined by TUNEL (FIG. 11A) and DHE staining (FIG. 11B), respectively (scale bar=100 μm). […] CHOP protein expression in whole liver and mature SREBP1 in the nuclear fraction were examined by IB analysis. Shown are three individual livers per condition. FIGS. 11D and 11E show the effects of GRP78 overexpression. HFD-fed MUP-uPA mice were intravenously injected with 1×10^9 pfu of Ad-LacZ or Ad-GRP78. After 6 days the mice (n=6 per group) were sacrificed and hepatic steatosis was analyzed by H&E staining (scale bar=100 μm) (FIG. 11D) and GRP78 expression was determined by IB analysis (FIG. 11E). […] Data are means±S.D. (n=3 per group). […] FIGS. 11H-11K show the effect of hepatocyte CHOP ablation on tumor development and severity of NASH in HFD-fed MUP-uPA mice at 40 weeks of age. […] Results are means±S.E.M. (Chop^F/F/MUP-uPA, n=17; Chop^Δhep/MUP-uPA, n=11). *p<0.05. […] Data are means±S.D. (n=5-6 per group).
FIGS. 12A-12F are pictorial and graphical diagrams showing characteristics of Tnfr1^−/−/MUP-uPA mice. FIGS. 12A and 12B show the effect of 4 weeks TUDCA treatment on HFD-fed MUP-uPA mouse liver. IHC of F4/80 (scale bar=100 μm) (FIG. 12A) and TNF mRNA expression (FIG. 12B). Data are means±S.D. (n=5 per group). *p<0.05. […] Data are presented as means±S.D. (n=3 per group). […] Data are presented as means±S.D. (n=5 per group). […] Results are shown as means±S.D.
Hepatic lipids were extracted with chloroform/methanol (2:1 v/v), and TG and total cholesterol contents were measured with Triglyceride Reagent Set (Pointe Scientific) and Cholesterol E (Wako), respectively. FA composition was analyzed by gas-chromatography at SRL Inc., Tokyo, Japan.
Livers were fixed in 10% neutral-buffered formalin or 4% paraformaldehyde, embedded in paraffin, sectioned, and stained with hematoxylin and eosin (H&E), Sirius Red, and processed for IHC. For frozen block preparation, tissue was embedded in Tissue-Tek OCT compound (Sakura Finetek). IHC and IF analyses were described (He et al., 2013). Stained areas were quantitated with Image J software. Slides were incubated with primary antibodies, followed by secondary antibodies labeled with Alexa488 or Alexa594 (Molecular Probes). TUNEL staining was performed using an Apoalert DNA Fragmentation Assay kit (Clontech). Accumulation of superoxide anions was examined by DHE staining (Sakurai et al., 2008). Tissue sample preparation and EM analysis were described (Lee et al., 2012).
We examined the effect of TUDCA on NASH development. We initiated daily i.p. injections of TUDCA (250 mg/kg) or phosphate-buffered saline (PBS; vehicle control) to HFD-fed MUP-uPA mice at 16 weeks of age. […]

[3] = 200 μM PA, WT hepatocytes, more pronounced in MUP-uPA hepatocytes
[4] = HFD-fed WT mice, 1.25 mg/kg i.p., 36 hrs, only in HFD-fed mice
[5] = 250 mg/kg i.p. daily for 4 weeks from 16 weeks of age, vs PBS vehicle
[6] = 250 mg/kg i.p. daily for 4 weeks, vs vehicle

O=C(O)CCCc1ccccc1 [4-PBA, 4-phenylbutyric acid]
PA-induced cell death (cell viability) [1]: attenuated PA-induced cell death
CHOP induction upon PA treatment ([2]; 200 μM PA with 1 mM 4-PBA, IB): reduced
JNK phosphorylation upon PA treatment ([2]; 200 μM PA with 1 mM 4-PBA, IB): only partially reduced
SREBP1 maturation upon PA treatment ([2]; 200 μM PA with 1 mM 4-PBA, IB): reduced

CCCCCCCCCCCCCCCC(=O)O [PA, palmitic acid]
lipotoxic cell death caused by PA ([1]; 300 μM PA, after 24 hrs, more extensive in MUP-uPA hepatocytes): lipotoxic cell death was seen in both WT and MUP-uPA hepatocytes
CHOP expression caused by PA [2, 3]: increased
SREBP1 maturation caused by PA [2, 3]: increased
JNK activation by PA ([2]; 200 μM PA, effect restricted to WT hepatocytes): activated

tunicamycin
liver steatosis (gross appearance of liver) (LFD or HFD-fed WT mice; HFD-fed WT mice, 1.25 mg/kg i.p., 36 hrs): more steatotic
ALT release (serum ALT) (LFD or HFD-fed WT mice; [4]): induction
ballooning degeneration (LFD or HFD-fed WT mice; [4]): induction
hepatocyte apoptosis (TUNEL) (LFD or HFD-fed WT mice; [4]): induction
liver damage by tunicamycin alone (LFD or HFD-fed WT mice; short term, by itself (without HFD)): did not damage the liver

C[C@H](CCC(=O)NCCS(=O)(=O)O)[C@H]1CC[C@H]2[C@@H]3[C@@H](O)C[C@@H]4C[C@H](O)CC[C@]4(C)[C@H]3CC[C@]12C [TUDCA, tauroursodeoxycholic acid]
PA-induced cell death (cell viability) [1]: attenuated PA-induced cell death
hepatic TG (HFD-fed MUP-uPA mice; [5]): significantly reduced
hepatic cholesterol (HFD-fed MUP-uPA mice; [5]): significantly reduced
hepatocyte ballooning (liver histology) (HFD-fed MUP-uPA mice; [5]): attenuated
hepatosteatosis (liver histology) (HFD-fed MUP-uPA mice; [5]): attenuated
serum ALT (HFD-fed MUP-uPA mice; [5]): significantly reduced
SREBP1 maturation in liver (IB) (HFD-fed MUP-uPA mice; 250 mg/kg i.p. daily for 4 weeks, nuclear fraction): inhibited
ROS accumulation (DHE staining) (HFD-fed MUP-uPA mice; [6]): suppressed
hepatocyte death (TUNEL) (HFD-fed MUP-uPA mice; [6]): suppressed
CHOP expression in liver (IB) (HFD-fed MUP-uPA mice; 250 mg/kg i.p. daily for 4 weeks, whole liver): inhibited
TNF expression in liver (mRNA) (HFD-fed MUP-uPA mice; 4 weeks TUDCA treatment): inhibited
macrophage infiltration in liver (F4/80 IHC) (HFD-fed MUP-uPA mice; 4 weeks TUDCA treatment): inhibited
